Among the test systems are A549 NSCLC; OVCAR-4 ovarian; DU-145 prostate; HOP-92 NSCLC; SNB-19 CNS; MDA-MB-435; HCT-116 colon; 786-0 renal; HL-60(TB) leukemia.
Common to all, as to test: inhibition of tumour cell growth, NCI panel, 48 h

Structures are written as SMILES. Where “and” joins values, the source holds several entries; their conditions need not be identical. Equal values may be shown once.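 96-well plates; 48 h exposure; 5 concentrations. Endpoints by linear interpolation between flanking doses. Not reached: highest tested concentration assigned. The concentration for 50% growth inhibition is given as GI50. TGI: total growth inhibition.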

Take `N#CC(Cc1ccccc1)N(CCC1=CCCCC1)C(c1ccccc1)c1ccccc1` (stereo not drawn): the TGI in the test with A549 NSCLC, in the test with OVCAR-4 ovarian, with DU-145 prostate, in the test on HOP-92 NSCLC, with SNB-19 CNS and in the test with MDA-MB-435 was over 100 µM in each case. The TGI with HCT-116 colon and in the test on 786-0 renal was over 100 µM in each case.

For the compound `COc1ccc(CN2C(=O)/C(=C\c3cc(OC)c(OC)c(OC)c3)c3ccccc32)cc1`, the GI50 is 2.51 µM in the test with A549 NSCLC; 3.25 µM with OVCAR-4 ovarian; 2.32 µM in the test with DU-145 prostate; 1.96 µM with HOP-92 NSCLC; 1.81 µM in the test on SNB-19 CNS; 2.09 µM in the test with MDA-MB-435. In the test on HCT-116 colon, the GI50 is 1.61 µM. Further, the TGI in the test on A549 NSCLC is over 100 µM; in the test on OVCAR-4 ovarian it was over 100 µM; in the test on DU-145 prostate it was 6.98 µM; in the test on HOP-92 NSCLC, 7.3 µM; in the test with SNB-19 CNS it was 3.56 µM; with MDA-MB-435, 5.08 µM. Also, the TGI in the test with HCT-116 colon was found to be 3.05 µM.

In the case of `CCN(CC)CCNC(=O)c1cc2cc(NC(=O)c3cc4cc([N+](=O)[O-])ccc4[nH]3)ccc2[nH]1`, the TGI in the test with A549 NSCLC is over 100 µM; in the test with OVCAR-4 ovarian, over 100 µM; in the test with DU-145 prostate, 31.8 µM; with HOP-92 NSCLC, over 50.7 µM; in the test with SNB-19 CNS, over 100 µM; with MDA-MB-435, over 100 µM. In the test on HCT-116 colon, this compound displayed a TGI of over 100 µM.

As for `Cc1cccc(Cn2c3c(c4cc(O)ccc42)C(=O)c2ccccc2C3=O)c1`, the TGI was over 89 µM in the test with HL-60(TB) leukemia; over 100 µM with A549 NSCLC; 4.57 µM in the test with OVCAR-4 ovarian; over 100 µM in the test on DU-145 prostate; over 100 µM with SNB-19 CNS; over 100 µM in the test with MDA-MB-435. Also, the TGI with HCT-116 colon is over 100 µM; in the test with 786-0 renal, 26.6 µM.

Take `O=C1c2cc3c(cc2-c2c1c1ccc(F)cc1c(=O)n2C[C@H](O)[C@@H](O)[C@H](O)CO)OCO3`: the GI50 in the test on A549 NSCLC is 0.226 µM; in the test with OVCAR-4 ovarian it was 0.185 µM; with DU-145 prostate, 0.0513 µM; in the test on HOP-92 NSCLC it was 0.18 µM; in the test with SNB-19 CNS, 0.0513 µM; in the test with MDA-MB-435 it was 0.112 µM. The TGI is over 100 µM in the test with A549 NSCLC; 0.874 µM in the test on OVCAR-4 ovarian; 1.99 µM in the test on DU-145 prostate; 0.69 µM in the test on HOP-92 NSCLC; 3.01 µM in the test with SNB-19 CNS; 0.279 µM with MDA-MB-435.

Take `COC(=O)C1CC(C=[N+](C)C)=C(SC)N1C(=O)OCc1ccccc1` (stereo not drawn): the TGI with A549 NSCLC, in the test with OVCAR-4 ovarian, with DU-145 prostate, in the test on HOP-92 NSCLC, with SNB-19 CNS and with MDA-MB-435 was over 100 µM throughout. The TGI in the test with HCT-116 colon and with 786-0 renal was over 100 µM each time.

Take `O=C(N/N=C/c1ccc(Cl)cc1)c1c(Cl)c(Cl)c(Cl)c(Cl)c1-c1nc2ccccc2[nH]1`: the TGI in the test on HL-60(TB) leukemia, in the test with A549 NSCLC, with DU-145 prostate, in the test with HOP-92 NSCLC, in the test on SNB-19 CNS and in the test with MDA-MB-435 was over 100 µM throughout. Further, the TGI with HCT-116 colon and in the test on 786-0 renal was over 100 µM each time.

On to `CC1(C)O[C@H]2OC(CO[Si](C)(C)C(C)(C)C)C(N=[N+]=[N-])[C@H]2O1` (stereo partly drawn), for which the TGI stood at 23.1 µM with HL-60(TB) leukemia; 35.8 µM with A549 NSCLC; 71.7 µM in the test on OVCAR-4 ovarian; 75.9 µM with HOP-92 NSCLC; 36.1 µM with SNB-19 CNS; 66.4 µM in the test with MDA-MB-435. Also, the TGI was found to be 28.9 µM with HCT-116 colon and 32.7 µM in the test with 786-0 renal.

Consider `N=c1nnc2ccc(Cl)cc2n1O`, for which the TGI with HL-60(TB) leukemia, in the test on DU-145 prostate, in the test on SNB-19 CNS, with MDA-MB-435 and in the test on HCT-116 colon was over 100 µM each time.

`Cc1ccc(-c2cc(-c3ccco3)c(C#N)c(=S)n2C2OC(CO)C(O)C(O)C2O)cc1` (stereo not drawn): the GI50 in the test with A549 NSCLC was 21.5 µM and 50.7 µM; in the test on OVCAR-4 ovarian, 14.5 µM and > 100 µM; in the test with DU-145 prostate, 30.3 µM; with HCT-116 colon, 4.91 µM and 25.3 µM. Moreover, the TGI in the test on A549 NSCLC was 65.8 µM and > 100 µM; in the test with OVCAR-4 ovarian it was 53.6 µM and > 100 µM; in the test with DU-145 prostate it was over 100 µM; in the test on SNB-19 CNS it was over 100 µM; with MDA-MB-435 it was over 100 µM; with HCT-116 colon it was 18.5 µM and > 100 µM. In the test with 786-0 renal, this compound gave a TGI of over 100 µM.

Turning to `C=C1CCN2CC[C@@H](OC(=O)/C(C)=C\C)[C@@H]12`, the TGI in the test with A549 NSCLC, in the test on OVCAR-4 ovarian, in the test on DU-145 prostate, with HOP-92 NSCLC, in the test on SNB-19 CNS and with MDA-MB-435 was over 100 µM throughout. For the same compound, the TGI with HCT-116 colon and with 786-0 renal was over 100 µM in each case.

For `COc1ccc(-n2c(C)nc3ccc(NC(=S)Nc4ccccc4)cc3c2=O)cc1`, the TGI in the test on HL-60(TB) leukemia, in the test on OVCAR-4 ovarian, in the test with DU-145 prostate, with SNB-19 CNS, in the test with MDA-MB-435 and in the test with HCT-116 colon was over 100 µM each time. The same compound came in with a TGI in the test on 786-0 renal of over 100 µM.

In the case of `Cc1ccc(N(Cc2ccccc2)Cc2ccccc2)cc1`, the TGI in the test on HL-60(TB) leukemia, in the test on A549 NSCLC, in the test on OVCAR-4 ovarian, in the test on DU-145 prostate, in the test with SNB-19 CNS and in the test with MDA-MB-435 was over 100 µM each time. Further, the TGI in the test with HCT-116 colon and with 786-0 renal was over 100 µM each time.

On to `Cc1ccccc1OC(C)C(=O)NN1C(=O)CSC1c1ccccc1` (stereo not drawn), for which the TGI in the test with A549 NSCLC, in the test with OVCAR-4 ovarian, in the test on DU-145 prostate, in the test on HOP-92 NSCLC, with SNB-19 CNS and in the test on MDA-MB-435 was over 100 µM throughout. The TGI in the test on HCT-116 colon and in the test with 786-0 renal was over 100 µM throughout.

With `CC1(C(=O)O)CCC2(C)CCC3(C)C(=CC(=O)C4C5(C)CCC(O)C(C)(C)C5CCC43C)C2C1` (stereo not drawn), the TGI was 51.3 µM with HL-60(TB) leukemia; over 100 µM with A549 NSCLC; over 100 µM in the test on OVCAR-4 ovarian; 77.3 µM in the test on DU-145 prostate; over 100 µM in the test with SNB-19 CNS; over 100 µM in the test with MDA-MB-435. Moreover, the TGI with HCT-116 colon is 63 µM; in the test with 786-0 renal, over 100 µM.

Source of the values: PubChem BioAssay (NCI).
